Experimental data: article PMC5438364, “A broad-spectrum bactericidal lipopeptide with anti-biofilm properties” (Scientific Reports, 2017)
Where two headings read alike, the source gives them in different places. Where a SMILES comes first, the peptide text is derived from it. [ ]: non-standard residue; d: D form. The star is where a group is joined. Palmitoyl = CCCCCCCCCCCCCCCC(=O)*; Lauroyl = CCCCCCCCCCCC(=O)*; 12Ado = NCCCCCCCCCCCC(=O)O; Decanoyl = CCCCCCCCCC(=O)*; Octanoyl = CCCCCCCC(=O)*

Tests used:
bacteria = conditions: cited from earlier work
Excerpt: A variety of strategies were proposed to generate chemical mimics of AMPs to alleviate complications associated with peptide drugs, [31]. AMP-mimics may also be beneficial in helping to improve understanding the complex molecular basis for AMPs function(s) owing to their relative molecular/structural simplicity. Namely, while charge and hydrophobicity represent most critical factors influencing AMP properties, it is often challenging to identify the respective optimal proportions for controlling potency or selectivity. For instance, excess hydrophobicity might promote self-assembly in aque ...

E. coli = conditions: microdilution; cited from earlier work
Excerpt: Table 2 Modulating biophysical properties of a core sequence by conjugating an N-terminal acyl. | column: MIC^c (µM) / E.c.

GPB and GNB = assay: Effect observed at low concentrations, analog series; assay type: cell-based; conditions: summary of this and previous studies
Procedure: Table 2 Modulating biophysical properties of a core sequence by conjugating an N-terminal acyl. | column: Effect observed at low concentrations (<3 µM)

[1] = Hydrophobicity by C18 RP-HPLC elution; assay type: physicochemical; conditions: chromatographic, RP-HPLC C18 (Vydac), flow 2 ml/min, linear acetonitrile gradient 1%/min
Procedure: OAKs were synthesized in-house (433 A Peptide Synthesizer; Applied Biosystems, Foster City, CA, USA) by the solid-phase method using 9-fluorenylmethyloxycarbonyl (Fmoc) active-ester chemistry on 4-methylbenzhydrylamine (MBHA) resin. OAKs were then deprotected and cleaved from the resin using trifluoroacetic acid:H2O (95:5) and purified to >95% chromatographic homogeneity by reverse phase high performance liquid chromatography (RP-HPLC) using C18 column (Vydac), a flow rate of 2 ml/min and a linear acetonitrile gradient of 1%/min (Alliance; Waters, Milford, MA, USA). Peaks identity was verified by mass-spectrometry (Xevo G2 Tof; Waters, Milford, MA, USA). Purified OAKs were then lyophilized and kept as dry powder at −20 °C.

S. mutans = assay: microbe, parasite or virus in culture; assay type: cell-based, Streptococcus mutans
Procedure: Staphylococci, Bacilli, Escherichia, Pseudomonas, Acinetobacter, Salmonella and Klebsiella species were grown in Luria Bertani broth (LB; 5 gr/l NaCl, 5 gr/l yeast extract, 10 gr/l tryptone). Enterococci and E. coli ML-35p were grown in Tryptic Soy Broth (TSB). Listeria and Streptococci were grown in Brain Heart Infusion (BHI). All bacteria were grown over-night at 37 °C with shaking. S. mutans 35668 plated on BHI agar for enumeration was grown for 48 hr. S. mutans UA159 was grown in 5% CO2 enriched atmosphere. Fusobacterium and Porphyromonas were grown in Wilkins-Chalgren growth medium and an anaerobic atmosphere.
Minimal inhibitory concentration (MIC) was determined using the microdilution assay. Mid-log-phase bacteria at 5 × 10^5 CFU/ml were incubated in a 96-well plate with serial two-fold dilutions of the tested compound for 18–24 hr at 37 °C (final volume of 200 µl). O.D. at 620 nm was measured (Synergy HT, BioTek Instruments, Winooski, VT, USA), and the MIC was determined as the lowest concentration for which no increase in O.D. was detected.

[2] = under similar conditions; increased with increasing hydrophobicity; cited from earlier work
S. mutans ATCC 35668 = assay: Bactericidal kinetics (time-kill); assay type: cell-based, Streptococcus mutans; conditions: time-kill kinetics in BHI
Procedure: Bactericidal kinetics was assessed by incubating 5 × 10^5 CFU/ml of mid-log-phase bacteria with the OAK for 3 hr at 37 °C with shaking. Aliquots were taken at t = 0, 0.5, 1, 2 and 3 hr, subjected to serial 10-fold dilutions in saline (NaCl = 0.85%) and plated for enumeration after 24–48 hr incubation at 37 °C.

[3] = tested on: S. mutans ATCC 35668 biofilm; assay: Anti-biofilm activity on pre-formed biofilm; assay type: cell-based, Streptococcus mutans; conditions: ≥0.5 mM, within one hour of exposure, inoculum 10^9 CFU/ml
Procedure: Anti-biofilm activity was evaluated against established biofilms in 96-well plates as follows. 200 µl of mid-log-phase S. mutans 35668 at 5 × 10^5 CFU/ml in BHI containing 2% sucrose were placed in each well, and plates were incubated for 24 hr at 37 °C without shaking. Unattached cells were removed by decanting the plates and biofilms were washed three times with milliQ water. Solutions of the tested compounds were placed on the biofilms for up to 3 hr at 37 °C without shaking. Plates were decanted in 0.5 hr intervals and biofilms were washed three times with milliQ water to remove any compound residues. Biofilms were scraped from the bottom of the wells, suspended in BHI and sonicated for 5 min in a sonication bath, subjected to serial 10-fold dilutions in saline and plated on BHI agar for enumeration.

Row | higher potency (MIC) than C14KKc12K (S. mutans; MIC of CHX versus C14KKc12K on S. mutans) | MIC (S. mutans; Streptococcus mutans, microdilution, BHI, 18–24 hr, 37 °C) | Compound | antibacterial activity (bacteria) | MIC E.c. (E. coli) | Effect observed at low concentrations (<3 µM) (GPB and GNB) | H, hydrophobicity, defined as % acetonitrile eluent in C18 HPLC column [1] | MIC (S. mutans) | binding affinity to LPS [2] | multiples of MIC at which bactericidal (S. mutans ATCC 35668) | killing of the initial inoculum in preformed biofilm [3]
1 |  |  | CCCCCCCC(=O)N[C@@H](CCCCN)C(=O)N[C@@H](CCCCN)C(=O)NCCCCCCCCCCCC(=O)N[C@@H](CCCCN)C(N)=O [C8KKc12K] (Octanoyl-KK[12Ado]K-NH2) | essentially inactive | >50[40] µM | Weak perturbations of GNB outer membrane (normal growth) | 41% | 50 µM | lower than that of C14KKc12K |  | 
2 |  |  | CCCCCCCCCC(=O)N[C@@H](CCCCN)C(=O)N[C@@H](CCCCN)C(=O)NCCCCCCCCCCCC(=O)N[C@@H](CCCCN)C(N)=O [C10KKc12K] (Decanoyl-KK[12Ado]K-NH2) | essentially inactive | >50[40] µM | Weak growth inhibition of some GPB and transient membrane damages including partial depolarization of CM (slight delay in GNB growth) | 46% | 6.25 µM | lower than that of C14KKc12K |  | 
3 |  |  | CCCCCCCCCCCC(=O)N[C@@H](CCCCN)C(=O)N[C@@H](CCCCN)C(=O)NCCCCCCCCCCCC(=O)N[C@@H](CCCCN)C(N)=O [C12KKc12K] (Lauroyl-KK[12Ado]K-NH2) |  | 16[40] µM | Impairing membrane damages leading to a bacteriostatic mode of action in GPB; OM permeabilization & delayed growth in GNB | 51% | 1.56 µM | lower than that of C14KKc12K |  | 
4 |  |  | CCCCCCCCCCCCCCCC(=O)N[C@@H](CCCCN)C(=O)N[C@@H](CCCCN)C(=O)NCCCCCCCCCCCC(=O)N[C@@H](CCCCN)C(N)=O [C16KKc12K] (Palmitoyl-KK[12Ado]K-NH2) |  | 25[24] µM | Trend reversal (reduced potency) due to excess hydrophobicity as self-assembly approaches the critical aggregation concentration | 62% | 1.56 µM |  |  | 
5 | ~3 fold | 0.3 µM | [H]/N=C(\N/C(=N/[H])NCCCCCCNC(=N)NC(=N)Nc1ccc(Cl)cc1)Nc1ccc(Cl)cc1 [CHX, chlorhexidine, reference compound] |  |  |  |  |  |  | 40 multiples of its MIC | > 99%
6 |  |  | NCCCC[C@H](NC(=O)CCCCCCCCCCCNC(=O)[C@H](CCCCN)NC(=O)[C@@H](N)CCCCN)C(N)=O [H-KKc12K-NH2] (H-KK[12Ado]K-NH2) | inactive | >50[40] µM | Not observed (normal growth) | 27% | >50 µM |  |  | 
